By EC50 is commonly meant the concentration that produces a half-maximal response.

Test [1] relates to ovariectomized (OVX) rats, tail skin temperature (TST). Briefly: Telemetry rat model of ovariectomy-induced thermoregulatory dysfunction (tail skin temperature). Type of test: in vivo. The settings on record: 30 mg/kg, sc; p<0.05 compared to vehicle control. An excerpt: This model has been modified from a previously reported protocol describing estrogen regulation of diurnal tail skin temperature (TST) patterns (Berendsen, et al., European Journal of Pharmacology, 2001, 419(1): 47-54). […] A temperature and physical activity transmitter (PhysioTel TA10TA-F40, Data Sciences International) was implanted subcutaneously in the dorsal scapular region and the tip of the temperature probe was tunneled subcutaneously 2.5 cm beyond the base of the tail. After a 7-day recovery period, TST readings were continuously recorded for the remainder of the study. Tail skin temperature readings were collected from each animal every 5 minutes with values obtained over a 10 second sampling period. The day before test day, an average baseline TST value was calculated for each animal by averaging temperature readings recorded during the 12 hour active (dark) phase. […]
Statistical analysis: Evaluation of a compound's ability to restore normal lowering of TST in the telemetry model was analyzed using hourly TST values calculated for each animal by averaging the 12 temperature readings obtained every 5 minutes over that recording time. […]
The effect of test compound is measured by evaluating the following parameters in this model: onset of action, duration of effect on TST, maximal change in TST and mean change in TST over the duration of the compound effect.

Test [2] has as its target T1, human dopamine transporter (hDAT) (Homo sapiens, UniProt Q01959).
T1 construct: purchased Perkin Elmer RBHDATM
Briefly: Dopamine transporter (hDAT) membrane binding assay, 3H-WIN 35,428.

Test [3] concerns Male Sprague-Dawley rats with L5/L6 spinal nerve ligation. Briefly: Spinal nerve ligation (SNL) model of neuropathic pain, tactile hypersensitivity (von Frey). It counts as in vivo. To be noted: rat, 30 mg/kg IP, FIG. 7. An excerpt:
Subjects. Male Sprague-Dawley rats (Indianapolis, Ind.) weighing 150 to 200 g at time of arrival, were individually housed in wire cages in a climate-controlled room. A 12-hour light/dark cycle (lights on at 0630) was in effect, and food and water were available ad libitum.
Surgery—Spinal Nerve Ligation. Rats were anesthetized with 3.5% halothane in O2 at 1 L/min and maintained with 1.5% halothane in O2 during surgery. Ligation of the L5 and L6 nerves was produced by an incision through the left paraspinal muscles. The left L5 and L6 spinal nerves were isolated adjacent to the vertebral column and ligated tightly with 6-0 silk suture just distal to the dorsal root ganglion. […]
Assessment of tactile hypersensitivity. […] Baseline tactile sensitivity was assessed using a series of calibrated von Frey monofilaments (Stoelting; Wood Dale, Ill.) 0 to 3 days before surgery. […] The ability of a single dose of test compound to reverse established hypersensitivity was assessed using a time course procedure. […]
Results are presented as the 50% threshold values (50% threshold in g force) estimated by the Dixon non-parametric test. […] Significant main effects were analyzed further by subsequent least significant difference analysis. […]
Reversal of tactile hypersensitivity was defined as a return to baseline of the tactile sensitivity and was calculated according to the following equation: […]

Test [4] addresses human norepinephrine transporter (hNET) (Homo sapiens, UniProt P23975). The settings on record: read-out: hNET function uptake (EC50 in nm); MDCK-Net6 cells, [3H]NE uptake.
For test [5], the target named is T2, human serotonin transporter (hSERT) (Homo sapiens, UniProt P31645).
T2 construct: cells were stimulated with staurosporine (40 nM) to increase the expression of the 5-HT transporter; host or cells: JAR (human placental choriocarcinoma)
T2 sequence (P31645 whole entry): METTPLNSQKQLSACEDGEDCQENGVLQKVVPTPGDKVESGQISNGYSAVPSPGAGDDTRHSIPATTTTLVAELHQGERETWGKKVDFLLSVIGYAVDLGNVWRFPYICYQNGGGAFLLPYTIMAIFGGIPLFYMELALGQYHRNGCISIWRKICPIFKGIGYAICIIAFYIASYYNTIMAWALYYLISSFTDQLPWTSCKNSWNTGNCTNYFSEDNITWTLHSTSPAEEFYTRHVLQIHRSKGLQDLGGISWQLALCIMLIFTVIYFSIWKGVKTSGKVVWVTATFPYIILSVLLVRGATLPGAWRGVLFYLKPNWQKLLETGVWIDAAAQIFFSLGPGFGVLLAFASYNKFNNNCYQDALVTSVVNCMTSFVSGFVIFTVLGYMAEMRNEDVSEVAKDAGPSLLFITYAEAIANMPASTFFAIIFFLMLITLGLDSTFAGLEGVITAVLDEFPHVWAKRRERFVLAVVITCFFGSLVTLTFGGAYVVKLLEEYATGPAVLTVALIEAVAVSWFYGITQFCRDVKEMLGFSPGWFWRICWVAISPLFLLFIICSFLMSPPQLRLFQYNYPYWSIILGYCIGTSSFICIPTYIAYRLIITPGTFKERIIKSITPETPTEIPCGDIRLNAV
As to the kind of experiment: Serotonin (5-HT) uptake assay (hSERT function uptake) in JAR cells. It counts as cell-based. To be noted: [3H]5-HT uptake. The procedure:
The methods for 5-HT functional reuptake using the JAR cell line were modified using a previous literature report. […] On day 2, cells were stimulated with staurosporine (40 nM) to increase the expression of the 5-HT transporter. On day 3, cells were removed from the cell incubator two hours prior to assay and maintained at room temperature to equilibrate the growth medium to ambient oxygen concentration. […] Twenty-five microliters of assay buffer (maximum 5-HT uptake) or test compound were added directly to triplicate wells containing cells in 200 μl of assay buffer. The cells were incubated with the compound for 10 minutes (37° C.). […] The cells were incubated with the reaction mixture for 5 minutes at 37° C. The 5-HT uptake reaction was terminated by decanting the assay buffer.

Each structure is given as a SMILES string. Several values for one entry are separate records, joined by “and”; a condition that tells them apart may be missing. Identical values can stand only once.

T1 sequence (Q01959 whole entry): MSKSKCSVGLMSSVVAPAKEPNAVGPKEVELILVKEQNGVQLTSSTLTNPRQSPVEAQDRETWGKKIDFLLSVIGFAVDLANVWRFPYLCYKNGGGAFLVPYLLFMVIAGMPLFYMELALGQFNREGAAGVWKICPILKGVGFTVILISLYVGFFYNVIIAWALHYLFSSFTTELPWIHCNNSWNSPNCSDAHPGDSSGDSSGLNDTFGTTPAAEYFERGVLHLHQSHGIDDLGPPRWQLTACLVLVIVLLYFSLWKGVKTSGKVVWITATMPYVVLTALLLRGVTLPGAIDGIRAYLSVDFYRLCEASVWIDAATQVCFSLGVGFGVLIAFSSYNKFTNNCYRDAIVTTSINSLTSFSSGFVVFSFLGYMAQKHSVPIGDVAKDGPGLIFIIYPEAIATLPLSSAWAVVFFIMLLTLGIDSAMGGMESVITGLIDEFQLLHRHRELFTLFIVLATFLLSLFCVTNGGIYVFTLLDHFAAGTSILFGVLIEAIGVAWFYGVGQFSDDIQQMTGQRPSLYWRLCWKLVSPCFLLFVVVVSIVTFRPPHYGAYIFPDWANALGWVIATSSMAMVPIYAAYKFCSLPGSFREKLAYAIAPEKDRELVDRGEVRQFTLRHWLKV
human norepinephrine transporter (hNET), sequence (P23975 whole entry): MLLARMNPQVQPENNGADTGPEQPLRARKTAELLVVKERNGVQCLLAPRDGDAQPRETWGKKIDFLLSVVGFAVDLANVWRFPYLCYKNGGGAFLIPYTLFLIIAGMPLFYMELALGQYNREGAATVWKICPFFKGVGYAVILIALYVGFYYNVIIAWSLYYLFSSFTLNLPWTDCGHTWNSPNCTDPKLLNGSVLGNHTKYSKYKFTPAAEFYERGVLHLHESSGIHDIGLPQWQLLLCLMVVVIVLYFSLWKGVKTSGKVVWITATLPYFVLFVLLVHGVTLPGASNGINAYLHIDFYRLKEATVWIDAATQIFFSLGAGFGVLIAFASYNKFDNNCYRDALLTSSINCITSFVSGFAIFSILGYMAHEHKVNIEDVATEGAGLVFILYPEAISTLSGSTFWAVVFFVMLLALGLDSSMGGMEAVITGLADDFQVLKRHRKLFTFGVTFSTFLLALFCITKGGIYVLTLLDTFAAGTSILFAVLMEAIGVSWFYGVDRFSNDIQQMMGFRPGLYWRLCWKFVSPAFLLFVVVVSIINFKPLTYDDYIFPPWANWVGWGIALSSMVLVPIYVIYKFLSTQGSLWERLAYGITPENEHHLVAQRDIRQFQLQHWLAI

`Cc1ccc(C23CNCC2C3)cc1` (racemic) [Racemic 1-(4-methylphenyl)-3-azabicyclo[3.1.0]hexane, 1-(4-methylphenyl)-3-azabicyclo[3.1.0]hexane]: in test [1], the “Restoration of normal TST in OVX-induced thermoregulatory dysfunction telemetry model” value is “restores normal TST”. Besides, the “hDAT binding (% I at 1 μM)” value in test [2] (1 μM) came to 26.5 % I. Also, in test [2], the “hDAT binding (% I at 10 μM)” value was 45 % I and 52.1 % I.
On to `Clc1ccc(C23CNCC2C3)cc1Cl` (racemic) [Racemic 1-(3,4-dichlorophenyl)-3-azabicyclo[3.1.0]hexane, 1-(3,4-dichlorophenyl)-3-azabicyclo[3.1.0]hexane], for which, in test [3], the “Reversal of tactile allodynia in the SNL neuropathic pain model” value is listed as “significantly reverses tactile allodynia”.
As for `Cc1ccc(C23CNCC2C3)cc1` (single isomer, unassigned; (+)) [(+)-1-(4-methylphenyl)-3-azabicyclo[3.1.0]hexane], the “Restoration of normal TST in OVX-induced thermoregulatory dysfunction telemetry model” value in test [1] was “restores normal TST”. The “hDAT binding (% I at 10 μM)” value in test [2] is recorded as 51 % I. Moreover, the EC50 in test [4] was found to be 0.148 µM; in test [5], 7.35 µM.

The values above are taken from patent publication US20120010260A1, “METHOD FOR TREATING NERVOUS SYSTEM DISORDERS AND CONDITIONS” (priority 2004, published 2012).
